Laboratory results as given in PubChem BioAssay (NCI).
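GI50 marks 50% less growth. TGI marks complete inhibition of growth.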

Legend:
Assay in all cases: inhibition of tumour cell growth, NCI panel, 384-well format
BT-549 breast = test system: BT-549 breast
LOX IMVI melanoma = test system: LOX IMVI melanoma
SF-539 CNS = test system: SF-539 CNS
OVCAR-3 ovarian = test system: OVCAR-3 ovarian
HCT-15 colon = test system: HCT-15 colon
EKVX NSCLC = test system: EKVX NSCLC
KM12 colon = test system: KM12 colon
OVCAR-4 ovarian = test system: OVCAR-4 ovarian
NCI-H226 lung = test system: NCI-H226 lung
CAKI-1 renal = test system: CAKI-1 renal
IGROV1 ovarian = test system: IGROV1 ovarian
UACC-62 melanoma = test system: UACC-62 melanoma
DU-145 prostate = test system: DU-145 prostate
HOP-92 NSCLC = test system: HOP-92 NSCLC
SF-268 CNS = test system: SF-268 CNS
HCT-116 colon = test system: HCT-116 colon
MOLT-4 leukemia = test system: MOLT-4 leukemia
MDA-MB-468 breast = test system: MDA-MB-468 breast
HS 578T breast = test system: HS 578T breast
OVCAR-8 ovarian = test system: OVCAR-8 ovarian
SK-OV-3 ovarian = test system: SK-OV-3 ovarian
U251 glioblastoma = test system: U251 glioblastoma
RXF 393 renal = test system: RXF 393 renal
PC-3 prostate = test system: PC-3 prostate
SK-MEL-28 melanoma = test system: SK-MEL-28 melanoma
NCI-H522 lung = test system: NCI-H522 lung
NCI-H23 lung = test system: NCI-H23 lung
HCC-2998 colon = test system: HCC-2998 colon
COLO 205 colon = test system: COLO 205 colon
MCF7 breast = test system: MCF7 breast
HOP-62 NSCLC = test system: HOP-62 NSCLC
ACHN renal = test system: ACHN renal
M14 melanoma = test system: M14 melanoma
MDA-MB-435 melanoma = test system: MDA-MB-435 melanoma
CCRF-CEM leukemia = test system: CCRF-CEM leukemia
RPMI-8226 leukemia = test system: RPMI-8226 leukemia
UO-31 renal = test system: UO-31 renal
HL-60(TB) leukemia = test system: HL-60(TB) leukemia
SR leukemia = test system: SR leukemia
SNB-19 CNS = test system: SNB-19 CNS
SF-295 CNS = test system: SF-295 CNS
SW-620 colon = test system: SW-620 colon
SK-MEL-5 melanoma = test system: SK-MEL-5 melanoma
K-562 leukemia = test system: K-562 leukemia
SNB-75 CNS = test system: SNB-75 CNS
T-47D breast = test system: T-47D breast
NCI-H322M lung = test system: NCI-H322M lung
NCI/ADR-RES ovarian = test system: NCI/ADR-RES ovarian
786-0 renal = test system: 786-0 renal
NCI-H460 NSCLC = test system: NCI-H460 NSCLC
HT29 colon = test system: HT29 colon
SN12C renal = test system: SN12C renal
MALME-3M melanoma = test system: MALME-3M melanoma
A549 NSCLC = test system: A549 NSCLC
UACC-257 melanoma = test system: UACC-257 melanoma
TK-10 renal = test system: TK-10 renal

Compound `COC1CCC(N2C(=O)CNc3ncc(-c4ccc(C(C)(C)O)nc4)nc32)CC1` (configuration not stated) has a GI50 (BT-549 breast) of 474 nM, a TGI (BT-549 breast) of 7.35 µM and a GI50 (LOX IMVI melanoma) of 587 nM. For the same compound, the TGI (LOX IMVI melanoma) was 12.9 µM, the GI50 (SF-539 CNS) was 1270 nM and the TGI (SF-539 CNS) was 22.3 µM. It also gave a GI50 (OVCAR-3 ovarian) of 386 nM, a TGI (OVCAR-3 ovarian) of 22.8 µM and a GI50 (HCT-15 colon) of 448 nM. The TGI (HCT-15 colon) was 44.7 µM, the GI50 (EKVX NSCLC) was 530 nM and the TGI (EKVX NSCLC) was 31.2 µM. It also gave a GI50 (KM12 colon) of 474 nM, a TGI (KM12 colon) of 33.9 µM and a GI50 (OVCAR-4 ovarian) of 901 nM. For the same compound, the TGI (OVCAR-4 ovarian) was 8.95 µM, the GI50 (NCI-H226 lung) was 326 nM and the TGI (NCI-H226 lung) was 7.12 µM. For the same compound, the GI50 (CAKI-1 renal) was 215 nM, the TGI (CAKI-1 renal) was 3.62 µM and the GI50 (IGROV1 ovarian) was 137 nM. For the same compound, the TGI (IGROV1 ovarian) was 12.8 µM, the GI50 (UACC-62 melanoma) was 237 nM and the TGI (UACC-62 melanoma) was 8.49 µM. It also gave a GI50 (DU-145 prostate) of 660 nM, a TGI (DU-145 prostate) of 20.2 µM and a GI50 (HOP-92 NSCLC) of 454 nM. It also gave a TGI (HOP-92 NSCLC) greater than 100 µM, a GI50 (SF-268 CNS) of 2180 nM and a TGI (SF-268 CNS) of 20 µM. It also gave a GI50 (HCT-116 colon) of 690 nM, a TGI (HCT-116 colon) of 21.8 µM and a GI50 (MOLT-4 leukemia) of 233 nM. It also gave a TGI (MOLT-4 leukemia) of 2110 nM, a GI50 (MDA-MB-468 breast) of 344 nM and a TGI (MDA-MB-468 breast) of 6.98 µM. It also gave a GI50 (HS 578T breast) of 173 nM, a TGI (HS 578T breast) of 523 nM and a GI50 (OVCAR-8 ovarian) of 693 nM. For the same compound, the TGI (OVCAR-8 ovarian) was greater than 100 µM, the GI50 (SK-OV-3 ovarian) was 280 nM and the TGI (SK-OV-3 ovarian) was 17.1 µM. It also gave a GI50 (U251 glioblastoma) of 1900 nM, a TGI (U251 glioblastoma) of 41.2 µM and a GI50 (RXF 393 renal) of 438 nM. The TGI (RXF 393 renal) was 92.4 µM, the GI50 (PC-3 prostate) was 157 nM and the TGI (PC-3 prostate) was 14.6 µM. For the same compound, the GI50 (SK-MEL-28 melanoma) was 234 nM, the TGI (SK-MEL-28 melanoma) was greater than 100 µM and the GI50 (NCI-H522 lung) was 200 nM. For the same compound, the TGI (NCI-H522 lung) was 21.4 µM, the GI50 (NCI-H23 lung) was 1460 nM and the TGI (NCI-H23 lung) was greater than 100 µM. For the same compound, the GI50 (HCC-2998 colon) was 2540 nM, the TGI (HCC-2998 colon) was 34.8 µM and the GI50 (COLO 205 colon) was 323 nM. For the same compound, the TGI (COLO 205 colon) was greater than 100 µM, the GI50 (MCF7 breast) was 68.6 nM and the TGI (MCF7 breast) was greater than 100 µM. The GI50 (HOP-62 NSCLC) was 672 nM, the TGI (HOP-62 NSCLC) was greater than 100 µM and the GI50 (ACHN renal) was 479 nM. The TGI (ACHN renal) was greater than 100 µM, the GI50 (M14 melanoma) was 296 nM and the TGI (M14 melanoma) was greater than 100 µM. It also gave a GI50 (MDA-MB-435 melanoma) of 515 nM, a TGI (MDA-MB-435 melanoma) of 24.2 µM and a GI50 (CCRF-CEM leukemia) of 261 nM. It also gave a TGI (CCRF-CEM leukemia) of 10.6 µM, a GI50 (RPMI-8226 leukemia) of 25 nM and a TGI (RPMI-8226 leukemia) of 110 nM. For the same compound, the GI50 (UO-31 renal) was 358 nM, the TGI (UO-31 renal) was greater than 100 µM and the GI50 (HL-60(TB) leukemia) was 2470 nM. It also gave a TGI (HL-60(TB) leukemia) of 17.1 µM, a GI50 (SR leukemia) of 16 nM and a TGI (SR leukemia) of 53.3 nM. For the same compound, the GI50 (SNB-19 CNS) was 5.34 µM, the TGI (SNB-19 CNS) was greater than 100 µM and the GI50 (SF-295 CNS) was 184 nM. For the same compound, the TGI (SF-295 CNS) was 1120 nM, the GI50 (SW-620 colon) was 2580 nM and the TGI (SW-620 colon) was greater than 100 µM. It also gave a GI50 (SK-MEL-5 melanoma) of 200 nM, a TGI (SK-MEL-5 melanoma) of 2620 nM and a GI50 (K-562 leukemia) of 517 nM. For the same compound, the TGI (K-562 leukemia) was 72 µM, the GI50 (SNB-75 CNS) was 256 nM and the TGI (SNB-75 CNS) was 22.9 µM. For the same compound, the GI50 (T-47D breast) was 74.3 nM, the TGI (T-47D breast) was greater than 100 µM and the GI50 (NCI-H322M lung) was 280 nM. It also gave a TGI (NCI-H322M lung) of 52.9 µM, a GI50 (NCI/ADR-RES ovarian) of 2360 nM and a TGI (NCI/ADR-RES ovarian) of 32.3 µM. For the same compound, the GI50 ([…]-0 renal) was 911 nM, the TGI (786-0 renal) was greater than 100 µM and the GI50 (NCI-H460 NSCLC) was 65.9 nM. The TGI (NCI-H460 NSCLC) was 16.3 µM, the GI50 (HT29 colon) was 697 nM and the TGI (HT29 colon) was greater than 100 µM. The GI50 (SN12C renal) was 275 nM, the TGI (SN12C renal) was 68.4 µM and the GI50 (MALME-3M melanoma) was 68.9 nM. It also gave a TGI (MALME-3M melanoma) of 587 nM, a GI50 (A549 NSCLC) of 358 nM and a TGI (A549 NSCLC) greater than 100 µM. For the same compound, the GI50 (UACC-257 melanoma) was 3.01 µM, the TGI (UACC-257 melanoma) was greater than 100 µM and the GI50 (TK-10 renal) was 504 nM. It also gave a TGI (TK-10 renal) of 17.2 µM.
